Results on 2 compounds are retold here after patent publication US11638427B2, “Methods and compositions for altering secondary metabolites in plants” (Impello Biosciences, Inc, priority 2020, dated 2023).

Test [1] concerns high-CBD hemp variety Cherry. Kind of test: Low-volume drone foliar applications of MeJA or MDJ on field grown high-CBD hemp, cannabinoid and terpene analysis. The class given is in vivo, Cannabis spp. Conditions: about 2 gallons per acre, at harvest; for increase in the ratio of CBD:THC compared to the Control group / alpha bisabolol change compared to the Control group: 7.5 mM; for increase in the ratio of CBD:THC compared to the Control group: morning applications about every 14 days. The text has this: In previous foliar application experiments, plants were sprayed until the leaves were dripping. In order to assess the plant physiological response to low-volume foliar applications of two jasmonate elicitors, methyl jasmonate (MeJA) and methyl dihydro-jasmonate (MDJ), an outdoor experiment on field grown, high-CBD hemp was designed and performed during the summer of 2019 using an unmanned aerial drone as the application device. A single high-CBD hemp variety, “Cherry” (CBDRx, Longmont, Colo.) was used in an organic field plot in Pueblo, Colo., which was subdivided into four spatially separated quadrants of approximately 0.5 acres each as determined by drone and GPS mapping. Each 0.5-acre quadrant was assigned a treatment group, and the middle area of the entire plot, approximately 1 acre in area, was used as a “control” section of the field. Plants in the Control group received sprays of water and TWEEN®-20 only, identical to the treatment groups except for the exclusion of any jasmonate (i.e., [0 mM] MeJA and MDJ) active ingredients. MeJA and MDJ were applied at approximately 2 gallons per acre. In comparison, previous foliar applications wherein the plant was sprayed until the leaves dripped would equate to between 50-100 gallons per acre.
Treatments were separated into such “morning” and “evening” applications in an attempt to determine if the time of day influenced the plant response to the treatments. The four treatment groups were as follows: TIM=[7.5 mM] MDJ foliar applications in the morning; TIE=[7.5 mM] MDJ foliar applications in the evening; T2M=[7.5 mM] MeJA foliar applications in the morning; T2E [7.5 mM] MeJA foliar applications in the evening. All treatment groups were prepared the day of the application, and all applications were made successively with the same drone device. To reduce potential cross-contamination of the drone sprayer equipment, an acetic acid solution (5%) was run through the applicator equipment between each treatment application and control spray application, followed by plain water as a final rinse.
Plants were planted and allowed to grow in the normal fashion until the onset of flowering, which occurred around Jul. 25, 2019. At that point, foliar applications of the treatment were made approximately every 14 days with adjustments to the schedule as needed to avoid applying treatments on days with high winds, rain, or other suboptimal conditions for drone flight or treatment applications. Approximately every 14 days during the flowering cycle, flower samples from three randomly selected plants in each experimental group were taken, dried, and stored for analytical testing; however, the focus of this study was to determine the effect of the treatment groups versus the control group at harvest. Final flower samples were taken from 10 randomly selected plants in each experimental group on Sep. 12, 2019, labelled accordingly, dried, and sent to a third part commercial cannabis testing lab (Pro Verde, Milford, Mass.) for chemical analysis of the cannabinoids and terpene content individually using liquid chromatography (LC) and headspace gas chromatography (HS-GC), respectively. All samples were harvested on the day of a scheduled treatment prior to treatment.
Statistical analysis of the quantitative terpene data from plant samples taken at harvest was performed using R statistical software and corrected post-hoc using Tukey HSD method. For cannabinoid data from the same plant samples, ANOVA analysis was performed in Microsoft Excel with Tukey HSD post-hoc corrections.

Another test concerns grey mold. Kind of test: Fungal plug growth on jasmonate-infused PDA plates. The test is classed as cell-based, Rhizopus stolonifera. The following applies: for grey mold growth: 1 mM, 4.25 mM, 10 mM in PDA, 72 hours post inoculation. As for the experimental part:
(§1) MDJ (TCI, CAS No.: 24851-98-7) and CJ were infused into potato dextrose agar (PDA, VWR Cat No.: 90003-494) petri dishes (100×15 mm VWR, Cat No: 25384-094) at concentrations ranging from 1 mM, 4.25 mM, and 10 mM. Each treatment was prepared using a technical grade stock solution of pure chemical (CJ or MDJ) diluted with TWEEN®-20 (VWR, CAS No.: […]). Culturable oyster mushroom and seedling mold served to create fungal mycelial plugs using a sterile 1 mL pipette tip (Eppendorf, Cat No.: 022491458) held upside down. The tips were used to make circle excisions (i.e., fungal plugs) from a mycelial mat grown on PDA with no biochemical infusions. Fungal pugs were then transferred to PDA infused with varying concentrations of CJ or MDJ, and control plates (no CJ or MDJ infusion) to monitor fungal growth at room temperature over time.
A grey mold was also tested (FIGS. 10A-10D). All plates were generated and inoculated as described above and incubated at room temperature under identical conditions. Shown in […] are plates of grey mold 72 hours post fungal inoculation. Control plates are shown on the top row, followed by concentrations of MeJA (left) and MDJ (right) in duplicate at […] (FIG. 10A), 4.25 mM (FIG. 10B), and 10 mM (FIG. 10C). […] While it was initially hypothesized that the grey mod was a species of Botrytis, subsequent sequence analysis identified the mold as Rhizopus stolonifera.

A further test deals with Penicillium spp. The experiment in a line: Mold growth on jasmonate-infused plates, mold isolated from orange. The class given is cell-based. Conditions: various concentrations in plates. As for the experimental part:
as §1
(§2) Based on the above results in Cannabis spp., additional fungi from various crops was sampled and tested. Plates comprising various concentrations of MDJ or MJ were prepared as described above.

The subject of test [2] is Cladosporium cladosporioides. The experiment in a line: Mold growth on jasmonate-infused plates, mold isolated from tomato. The test is classed as cell-based. Conditions: various concentrations in plates. As for the experimental part:
as §1, §2

On to `CC/C=C\C[C@H]1C(=O)CC[C@@H]1CC(=O)OC` [MeJA, Methyl Jasmonate], for which, in test [1], the “increase in the ratio of CBD:THC compared to the Control group” value is 1.76% and the “alpha bisabolol change compared to the Control group” value is listed as “decreased”. Besides, the grey mold growth result in the test on grey mold was “inhibited”. For the same compound, the “efficacy at inhibiting grey mold, MeJA compared with MDJ” value in the test on grey mold (at 4.25 mM and 10 mM concentrations, 72 hours) is on record as “more effective”. In the test on Penicillium spp., the “growth of mold isolated from orange” value is listed as “effective at preventing the growth”. In addition, in test [2], the “growth of mold isolated from tomato” value was “effective at preventing the growth”.
As to `CCCCCC1C(=O)CCC1CC(=O)OC` (stereo not shown) [MDJ, methyl dihydrojasmonate], in test [1], the “increase in the ratio of CBD:THC compared to the Control group” value is reported as 2.53% and the “alpha bisabolol change compared to the Control group” value was found to be 17.2%. For the same compound, in test [1] (Treatment 1, 7.5 mM), the “alpha-humulene increase compared to the Control group” value is given as 3.15%, the “beta-caryophyllene increase compared to the Control group” value was found to be 3.3%, the “guaiol increase compared to the Control group” value was 5.66% and the “trans-nerolidol increase compared to the Control group” value came to 66.66%. In the test with grey mold, the grey mold growth entry was “inhibited”. Further, in the test on grey mold (at the 1 mM concentration, 72 hours), the “efficacy at inhibiting grey mold, MDJ compared with MeJA” value is “more effective”. Moreover, the “growth of mold isolated from orange” value in the test on Penicillium spp. is recorded as “effective at preventing the growth”. In addition, the “growth of mold isolated from tomato” value in test [2] is given as “effective at preventing the growth”.
